Reference: US8980906B2, “Pyridonemorphinan analogs and biological activity on opioid receptors” (Purdue Pharma L.P., priority 2012, dated 2015)

Assays:
κ-opioid receptor [1] = molecular target: T1, κ-opioid receptor (Homo sapiens (Human), UniProt P41145); test: κ-opioid receptor [35S]GTPγS functional assay, HEK-293 or CHO cells; assay type: biochemical; details: for Emax: relative to U69,593, HEK-293 or CHO cells
Method: (§1) κ-Opioid Receptor Functional Assay Procedures: Functional [^35S]GTPγS binding assays were conducted as follows. κ opioid receptor membrane solution was prepared by sequentially adding final concentrations of 0.026 μg/μl κ membrane protein (in-house), 10 μg/mL saponin, 3 μM GDP and 0.20 nM [^35S]GTPγS to binding buffer (100 mM NaCl, 10 mM MgCl2, 20 mM HEPES, pH 7.4) on ice. The prepared membrane solution (190 μl/well) was transferred to 96-shallow well polypropylene plates containing 10 μl of 20× concentrated stock solutions of agonist prepared in DMSO. Plates were incubated for 30 min at a temperature of about 25° C. with shaking. Reactions were terminated by rapid filtration onto 96-well Unifilter GF/B filter plates (Perkin Elmer, Shelton, Conn.) using a 96-well tissue harvester (Packard) and followed by three filtration washes with 200 μl ice-cold binding buffer (10 mM NaH2PO4, 10 mM Na2HPO4, pH 7.4). Filter plates were subsequently dried at 50° C. for 2-3 hours. Fifty μl/well scintillation cocktail (Perkin Elmer, Shelton, Conn.) was added and plates were counted in a Packard Top-Count for 1 min/well.
(§2) κ-Opioid Receptor Functional Data: κ GTP EC50 is the concentration of a compound providing 50% of the maximal response for the compound at a κ receptor.
(§3) κ GTP Emax (%) is the maximal effect elicited by a compound relative to the effect elicited by U69,593.
(§4) In TABLE 2, activity response of certain Compounds of the Invention to the μ-, δ- and κ-opioid receptors was determined as described above for functional assays using HEK-293 or CHO cells.

κ-opioid receptor [2] = molecular target: T1, κ-opioid receptor; test: κ-opioid receptor radioligand dose-displacement binding assay ([3H]-U69,593); details: binding affinity, [3H]-U69,593 displacement
Method: κ-Opioid Receptor Binding Assay Procedures: Membranes from HEK-293 cells, CHO or U-2 OS cells expressing the recombinant human kappa opioid receptor (κ) were prepared by lysing cells in ice cold hypotonic buffer (2.5 mM MgCl2, 50 mM HEPES, pH 7.4) (10 mL/10 cm dish) followed by homogenization with a tissue grinder/Teflon pestle. Membranes were collected by centrifugation at 30,000×g for 15 min at 4° C. and pellets were resuspended in hypotonic buffer to a final concentration of 1-3 mg/mL. Protein concentrations were determined using the BioRad protein assay reagent with bovine serum albumen as standard, Aliquots of κ receptor membranes were stored at […].
Radioligand dose displacement assays used 0.4 nM [^3H]-U69,593 (GE Healthcare, Piscataway, N.J.; 40 Ci/mmole) with 15 μg membrane protein (recombinant κ opioid receptor expressed in HEK 293 cells; in-house prep) in a final volume of 200 μl binding buffer (5% DMSO, 50 mM Trizma base, pH 7.4). Non-specific binding was determined in the presence of 10 μM unlabeled naloxone or U69,593. All reactions were performed in 96-well polypropylene plates for 1 hour at a temperature of about 25° C. Binding reactions were terminated by rapid filtration onto 96-well Unifilter GF/C filter plates (Perkin Elmer, Shelton, Conn.) presoaked in 0.5% polyethylenimine (Sigma). Harvesting was performed using a 96-well tissue harvester (Perkin Elmer, Shelton, Conn.) followed by five filtration washes with 200 μl ice-cold binding buffer. Filter plates were subsequently dried at 50° C. for 1-2 hours. Fifty μl/well scintillation cocktail (Perkin Elmer, Shelton, Conn.) was added and plates were counted in a Packard Top-Count for 1 min/well.

μ-opioid receptor [3] = molecular target: T2, μ-opioid receptor (Homo sapiens (Human), UniProt P35372); test: μ-opioid receptor [35S]GTPγS functional assay, HEK-293 or CHO cells; assay type: biochemical
Method: (§5) μ-Opioid Receptor Functional Assay Procedures: [^35S]GTPγS functional assays were conducted using freshly thawed μ-receptor membranes prepared in-house from a cell line expressing recombinant μ opioid receptor in a HEK-293, CHO or U-2 OS cell background, or purchased from a commercial source (Perkin Elmer, Shelton, Conn.; or DiscovRx, Fremont, Calif.). Assay reactions were prepared by sequentially adding the following reagents to binding buffer (100 mM NaCl, 10 mM MgCl2, 20 mM HEPES, pH 7.4) on ice (final concentrations indicated): membrane protein (0.026 mg/mL), saponin ([…]), GDP ([…]) and [^35S]GTPγS (0.20 nM; Perkin Elmer, Shelton, Conn.). The prepared membrane solution (190 μl/well) was transferred to 96-shallow well polypropylene plates containing 10 μl of 20× concentrated stock solutions of the agonist [D-Ala^2, N-methyl-Phe^4 Gly-ol^5]-enkephalin (DAMGO) prepared in dimethyl sulfoxide (DMSO). Plates were incubated for 30 min at about 25° C. with shaking. Reactions were terminated by rapid filtration onto 96-well Unifilter GF/B filter plates (Perkin Elmer, Shelton, Conn.) using a 96-well tissue harvester (Perkin Elmer, Shelton, Conn.) followed by three filtration washes with 200 μl of ice-cold wash buffer (10 mM NaH2PO4, 10 mM Na2HPO4, pH 7.4). Filter plates were subsequently dried at 50° C. for 2-3 hours. BetaScint scintillation cocktail (Perkin Elmer, Shelton, Conn.) was added (50 μl/well) and plates were counted using a Packard Top-Count for 1 min/well. Data were analyzed using the sigmoidal dose-response curve fitting functions in GraphPad PRISM v. 3.0, or an in-house function for non-linear, sigmoidal dose-response curve-fitting.
(§6) μ-Opioid Receptor Functional Data: μ GTP EC50 is the concentration of a compound providing 50% of the maximal response for the compound at a μ-opioid receptor.
(§7) μ GTP Emax (%) is the maximal effect elicited by a compound relative to the effect elicited by DAMGO, a standard μ agonist. Generally, the μ GTP Emax (%) value measures the efficacy of a compound to treat or prevent pain or other Conditions.
as §4

κ-opioid receptor [4] = molecular target: T1, κ-opioid receptor; test: κ-opioid receptor [35S]GTPγS functional assay, U-2 OS cells; assay type: biochemical; details: for Emax: relative to U69,593, U-2 OS cells
Method: as §1, §2, §3
(§8) The following TABLE 3 provides results on the activity response of certain Compounds of the Invention at the μ- and κ-opioid receptors determined as described above using U-2 OS cells.

μ-opioid receptor [5] = molecular target: T2, μ-opioid receptor; test: μ-opioid receptor [35S]GTPγS functional assay, U-2 OS cells; assay type: biochemical; details: for Emax: relative to DAMGO, U-2 OS cells
Method: as §5, §6, §7, §8

Compound	EC50 (κ-opioid receptor [1]) [nM]	Emax (κ-opioid receptor [1]) [%]	Ki (κ-opioid receptor [2]) [nM]	EC50 (μ-opioid receptor [3]) [nM]	EC50 (κ-opioid receptor [4]) [nM]	Emax (κ-opioid receptor [4]) [%]	EC50 (μ-opioid receptor [5]) [nM]	Emax (μ-opioid receptor [5]) [%]	Emax (μ-opioid receptor [3]; relative to DAMGO, HEK-293 or CHO cells) [%]
COC(=O)c1cc2c([nH]c1=O)C[C@]13CCN(CC4CC4)[C@H](Cc4ccc(OC)cc41)[C@]3(O)C2 [Compound 2, (6R,6a,S,12aR)-methyl 15-(cyclopropylmethyl)-6a-hydroxy-2-dimethoxy-10-oxo-6,6a,7,10,11,12-hexahydro-5H-6,12a-(epiminoethano)naphtho[2,1-g]quinoline-9-carboxylate]	594 ± 87	37.5 ± 2.25	37.6 ± 4.75	> 20000					
COc1ccc2c(c1)[C@]13CCN(CC4CC4)[C@H](C2)[C@]1(O)Cc1cc(C(=O)NCC(N)=O)c(=O)[nH]c1C3 [Compound 13, (6R,6aS,12aR)—N-(2-amino-2-oxoethyl)-15-(cyclopropylmethyl)-6a-hydroxy-2-methoxy-10-oxo-6,6a,7,10,11,12-hexahydro-5H-6,12a-(epiminoethano)naphtho[2,1-g]quinoline-9-carboxamide]			467 ± 173						
CC(C)C[C@H](NC(=O)c1cc2c([nH]c1=O)C[C@]13CCN(CC4CC4)[C@H](Cc4ccc(O)cc41)[C@]3(O)C2)C(N)=O [Compound 18, (6R,6aS,12aR)—N—((S)-1-amino-4-methyl-1-oxopentan-2-yl)-15-(cyclopropylmethyl)-2,6a-dihydroxy-10-oxo-6,6a,7,10,11,12-hexahydro-5H-6,12a-(epiminoethano)naphtho[2,1-g]quinoline-9-carboxamide]	> 20000		1.09 ± 0.05						
NC(=O)c1cc2c([nH]c1=O)C[C@]13CCN(CCc4ccccc4)[C@H](Cc4ccc(O)cc41)[C@]3(O)C2 [Compound 37, (6R,6aS,12aR)-2,6a-dihydroxy-10-oxo-15-phenethyl-6,6a,7,10,11,12-hexahydro-5H-6,12a-(epiminoethano)naphtho[2,1-g]quinoline-9-carboxamide]	> 20000	2.5		268 ± 53.1	374 ± 93.5	11.3 ± 1.45	72.7 ± 3.87	71.3 ± 0.33	98 ± 4.62
CN1CC[C@]23Cc4[nH]c(=O)c(C(=O)N5CCCC5)cc4C[C@@]2(O)[C@H]1Cc1ccc(O)cc13 [Compound 48, (6R,6aS,12aR)-2,6a-dihydroxy-15-methyl-9-(pyrrolidine-1-carbonyl)-6a,7,11,12-tetrahydro-5H-6,12a-(epiminoethano)naphtho[2,1-g]quinolin-10(6H)-one]					226 ± 4.41	90.3 ± 5.46	97.4 ± 4.35	82.7 ± 0.88	
CC(C)CCNC(=O)c1cc2c([nH]c1=O)C[C@]13CCN(C)[C@H](Cc4ccc(O)cc41)[C@]3(O)C2 [Compound 49, (6R,6aS,12aR)-2,6a-dihydroxy-N-isopentyl-15-methyl-10-oxo-6,6a,7,10,11,12-hexahydro-5H-6,12a-(epiminoethano)naphtho[2,1-g]quinoline-9-carboxamide]					204 ± 68.1	63 ± 1.73	445 ± 63.8	80 ± 3.61	
C[C@H](NC(=O)c1cc2c([nH]c1=O)C[C@]13CCN(C)[C@H](Cc4ccc(O)cc41)[C@]3(O)C2)C(N)=O [Compound 50, (6R,6aS,12R)—N—((S)-1-amino-1-oxopropan-2-yl)-26a-dihydroxy-15-methyl-10-oxo-6,6a,7,10,11,12-hexahydro-5H-6,12a-(epiminoethano)naphtho[2.1-g]quinoline-9-carboxamide]					1070 ± 157	54 ± 2.74	204 ± 11.3	95 ± 1.15	
CN1CC[C@]23Cc4[nH]c(=O)c(C(=O)N[C@@H](Cc5ccccc5)C(N)=O)cc4C[C@@]2(O)[C@H]1Cc1ccc(O)cc13 [Compound 51, (6R,6aS,12R)—N—((S)-1-amino-1-oxo-3-phenylpropan-2-yl)-2,6a-dihydroxy-15-methyl-10-oxo-6,6a,7,10,11,12-hexahydro-5H-6,12a-(epiminoethano)naphtho[2.1-g]quinoline-9-carboxamide]					488 ± 79.4	39.3 ± 3.84	126 ± 14.3	97.7 ± 1.45	
CC(C)C[C@H](NC(=O)c1cc2c([nH]c1=O)C[C@]13CCN(C)[C@H](Cc4ccc(O)cc41)[C@]3(O)C2)C(N)=O [Compound 52, (6R,6aS,12R)—N—((S)-1-amino-4-methyl-1-oxopentan-2-yl)-2,6a-dihydroxy-15-methyl-10-oxo-6,6a,7,10,11,12-hexahydro-5H-6,12a-(epiminoethano)naphtho[2.1-g]quinoline-9-carboxamide]					3790 ± 1570	28.8 ± 2.17	244 ± 10.8	97.7 ± 1.45	
CN1CC[C@]23Cc4[nH]c(=O)c(C(=O)N5CCC[C@H]5C(N)=O)cc4C[C@@]2(O)[C@H]1Cc1ccc(O)cc13 [Compound 53, (S)-1-((6R,6aS,12R)-2,6a-dihydroxy-15-methyl-10-oxo-6,6a,7,10,11,12-hexahydro-5H-6,12a-(epiminoethano)naphtho[2.1-g]quinoline-9-carbonyl)pyrrolidine-2-carboxamide]					602 ± 173	68.3 ± 3.38	123 ± 6.15	84 ± 2.08	
O=C(c1cc2c([nH]c1=O)C[C@]13CCN(CC4CC4)[C@H](Cc4ccc(O)cc41)[C@@H]3C2)N1CCCC1 [Compound 55, (6R,6aS,12R)-15-(cyclopropylmethyl)-2-hydroxy-9-(pyrrolidine-1-carbonyl)-6,6a,7,12-tetrahydro-5H-6,12a-(epiminoethano)naphtho[2.1-g]quinolin-10(11H)-one]					0.33 ± 0.037	86 ± 2.68	0.79 ± 0.31	17.6 ± 0.68	
O=C(c1ccccc1)c1cc2c([nH]c1=O)C[C@]13CCN(CC4CC4)[C@H](Cc4ccc(O)cc41)[C@]3(O)C2 [Compound 59, (6R,6aS,12R)-9-benzoyl-15-(cyclopropylmethyl)-2,6a-dihydroxy-6,6a,7,12-tetrahydro-5H-6,12a-(epiminoethano)naphtho[2.1-g]quinolin-10(11H)-one]					17900 ± 7550	16.8 ± 1.44	> 20000	2.5	
